What was measured:
[1] = target: T1, Furin (108-574-Tev-Flag-His) enzyme (Homo sapiens, UniProt P09958); experiment: Furin enzyme assay; format: biochemical; details: for IC50: read-out: furin enzyme pIC50 (converted)
T1 construct: Furin (108-574-Tev-Flag-His) enzyme was expressed and purified from CHO cells; TEV cleavage site (C); FLAG (C); His (C); made in house; host or cells: CHO cells
Method in brief: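 Compounds ran as 11-point threefold dilutions (0.00017–10 μM final) against 40 pM furin, purified from CHO cells, for 2 h at room temperature. Buffer: 100 mM HEPES pH7.5 with 1 mM CaCl2 and 0.005% Triton X-100. Envision readout. Four-parameter curve gives pXC50.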

[2] = target: T2, furin (endogenous protease) in U20S cells (Homo sapiens, UniProt P09958); experiment: Furin cell-based assay (image-based, Golgi-targeted GFP with BMP10 furin/PCSK cleavage site); details: 24-hour incubation, read-out: furin golgi cell pXC50 (converted);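 note: Read-out is mean GFP fluorescence of Golgi puncta per cell by high-content imaging, retained when furin inhibited, over an eleven-point 0.00017–10 µM series, four-parameter fit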
T2 construct: the endogenous protease cleaves GFP; endogenous in cells; host or cells: U2OS cells transduced with a BacMam reporter
T2 sequence (P09958 108-794): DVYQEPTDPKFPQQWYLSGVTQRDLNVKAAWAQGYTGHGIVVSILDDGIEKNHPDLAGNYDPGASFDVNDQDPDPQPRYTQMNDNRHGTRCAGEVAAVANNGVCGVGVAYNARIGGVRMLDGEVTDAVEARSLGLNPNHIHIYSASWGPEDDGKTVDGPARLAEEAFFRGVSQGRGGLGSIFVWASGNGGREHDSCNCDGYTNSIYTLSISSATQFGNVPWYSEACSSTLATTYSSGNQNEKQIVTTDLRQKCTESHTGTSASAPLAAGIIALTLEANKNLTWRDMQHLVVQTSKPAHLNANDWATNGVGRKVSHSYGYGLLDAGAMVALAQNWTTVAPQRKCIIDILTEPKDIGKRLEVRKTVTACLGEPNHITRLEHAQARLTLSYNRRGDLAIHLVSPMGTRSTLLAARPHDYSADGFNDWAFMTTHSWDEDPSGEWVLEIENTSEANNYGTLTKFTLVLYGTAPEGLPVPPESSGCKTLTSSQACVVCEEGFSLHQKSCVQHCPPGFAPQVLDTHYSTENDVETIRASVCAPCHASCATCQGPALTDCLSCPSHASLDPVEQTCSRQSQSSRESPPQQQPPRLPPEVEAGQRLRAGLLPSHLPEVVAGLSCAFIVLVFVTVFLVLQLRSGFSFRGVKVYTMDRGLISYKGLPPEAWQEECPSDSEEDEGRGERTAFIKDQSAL

T1 sequence (P09958 108-574): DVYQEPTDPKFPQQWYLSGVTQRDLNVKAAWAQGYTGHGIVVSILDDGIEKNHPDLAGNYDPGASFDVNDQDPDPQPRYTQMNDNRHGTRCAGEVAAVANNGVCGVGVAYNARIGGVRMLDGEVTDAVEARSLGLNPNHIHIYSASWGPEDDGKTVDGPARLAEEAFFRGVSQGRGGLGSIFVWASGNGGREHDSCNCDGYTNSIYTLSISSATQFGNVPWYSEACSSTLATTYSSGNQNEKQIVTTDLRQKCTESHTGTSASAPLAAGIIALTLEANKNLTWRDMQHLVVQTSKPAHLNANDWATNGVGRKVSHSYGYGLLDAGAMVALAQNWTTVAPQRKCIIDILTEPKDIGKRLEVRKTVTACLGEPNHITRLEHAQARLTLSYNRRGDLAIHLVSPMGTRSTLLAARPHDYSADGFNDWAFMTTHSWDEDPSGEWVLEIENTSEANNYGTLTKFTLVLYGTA

| SMILES | furin enzyme pIC50 [1] | EC50 [2] [nM] | IC50 [1] [nM] |
| --- | --- | --- | --- |
| CC(CCN1CCN(c2ncc(Oc3cc(CN4CCC(CC(=O)O)CC4)cc(-c4cc(Cl)cc(Cl)c4)n3)cn2)CC1)S(C)(=O)=O (centres unmarked) [Example 205, 2-(1-((2-(3,5-Dichlorophenyl)-6-((2-(4-(3-(methylsulfonyl)butyl)piperazin-1-yl)pyrimidin-5-yl)oxy)pyridin-4-yl)methyl)piperidin-4-yl)acetic acid] | 8.6 | 15.8 |  |
| CNC(=O)OCC1CCN(Cc2cc(Oc3cnc(N4CCN(CCCS(C)(=O)=O)CC4)nc3)nc(-c3cc(Cl)cc(Cl)c3)c2)CC1 [Example 210, (1-((2-(3,5-dichlorophenyl)-6-((2-(4-(3-(methylsulfonyl)propyl)piperazin-1-yl)pyrimidin-5-yl)oxy)pyridin-4-yl)methyl)piperidin-4-yl)methyl methylcarbamate] | 8.7 | 3.98 |  |
| CNC(=O)OCC1CCN(Cc2cc(Oc3cnc(N4CCN(C5CC(C(=O)O)C5)CC4)nc3)nc(-c3cc(Cl)cc(Cl)c3)c2)CC1 (centres unmarked) [Example 211, 3-(4-(5-((6-(3,5-dichlorophenyl)-4-((4-(((methylcarbamoyl)oxy)methyl)piperidin-1-yl)methyl)pyridin-2-yl)oxy)pyrimidin-2-yl)piperazin-1-yl)cyclobutanecarboxylic acid] | 10.1 | 25.1 |  |
| CN1CCN(c2ccc(Oc3cc(CN4CCC(CC(=O)O)CC4)cc(-c4cc(Cl)cc(Cl)c4)n3)cn2)CC1 [Example 212, 2-(1-((2-(3,5-dichlorophenyl)-6-((6-(4-methylpiperazin-1-yl)pyridin-3-yl)oxy)pyridin-4-yl)methyl)piperidin-4-yl)acetic acid] | 9 | 31.6 |  |
| CC(CC1CCN(Cc2cc(Oc3ccc(N4CCN(C)CC4)nc3)nc(-c3cc(Cl)cc(Cl)c3)c2)CC1)C(=O)O (centres unmarked) [Example 213, 3-(1-((2-(3,5-dichlorophenyl)-6-((6-(4-methylpiperazin-1-yl)pyridin-3-yl)oxy)pyridin-4-yl)methyl)piperidin-4-yl)-2-methylpropanoic acid] | 8.9 | 25.1 |  |
| CC(=O)NCC1CCN(Cc2cc(Oc3cnc(N4CCN(C5CC(C(=O)O)C5)CC4)nc3)nc(-c3cc(Cl)cc(Cl)c3)c2)CC1 (centres unmarked) [Example 216, 3-(4-(5-((4-((4-(acetamidomethyl)piperidin-1-yl)methyl)-6-(3,5-dichlorophenyl)pyridin-2-yl)oxy)pyrimidin-2-yl)piperazin-1-yl)cyclobutanecarboxylic acid] | 10.2 | 15.8 |  |

Second part, the molecule after the results:

| furin enzyme pIC50 [1] | EC50 [2] [nM] | IC50 [1] [nM] | SMILES |
| --- | --- | --- | --- |
|  | 10 | 0.0126 | CNC(=O)OCC1CCN(Cc2cc(Oc3cnc(N4CCN(C(C)CCC(=O)O)CC4)nc3)nc(-c3cc(Cl)cc(Cl)c3)c2)CC1 (centres unmarked) [Example 208] |
| 9.6 | 2.51 |  | CNC(=O)OCC1CCN(Cc2cc(Oc3cnc(N4CCN(C(C)CCO)CC4)nc3)nc(-c3cc(Cl)cc(Cl)c3)c2)CC1 (centres unmarked) [Example 209, (1-((2-(3,5-dichlorophenyl)-6-((2-(4-(4-hydroxybutan-2-yl)piperazin-1-yl)pyrimidin-5-yl)oxy)pyridin-4-yl)methyl)piperidin-4-yl)methyl methylcarbamate] |
| 9.1 | 2.51 |  | CC(=O)NCC1CCN(Cc2cc(Oc3cnc(N4CCN(CCC(C)S(C)(=O)=O)CC4)nc3)nc(-c3cc(Cl)cc(Cl)c3)c2)CC1 (centres unmarked) [Example 214, N-((1-((2-(3,5-dichlorophenyl)-6-((2-(4-(3-(methylsulfonyl)butyl)piperazin-1-yl)pyrimidin-5-yl)oxy)pyridin-4-yl)methyl)piperidin-4-yl)methyl)acetamide] |
|  | 10 | 0.398 | CC(=O)NCC1CCN(Cc2cc(Oc3cnc(N4CCN(C(C)CCC(=O)O)CC4)nc3)nc(-c3cc(Cl)cc(Cl)c3)c2)CC1 (centres unmarked) [Example 215, 4-(4-(5-((4-((4-(acetamidomethyl)piperidin-1-yl)methyl)-6-(3,5-dichlorophenyl)pyridin-2-yl)oxy)pyrimidin-2-yl)piperazin-1-yl)pentanoic acid] |
